Measurements: ChEMBL document CHEMBL3991601, “The target landscape of clinical kinase drugs” (Science, 2017)
The source made the active and inactive calls.

Assays:
[1] = target: Chromodomain-helicase-DNA-binding protein 4 (Homo sapiens, UniProt Q14839)
[2] = target: Mitogen-activated protein kinase 10 (Homo sapiens, UniProt P53779)
[3] = target: T1, Glycogen phosphorylase, brain form (Homo sapiens, UniProt P11216)
T1 sequence (P11216 whole entry): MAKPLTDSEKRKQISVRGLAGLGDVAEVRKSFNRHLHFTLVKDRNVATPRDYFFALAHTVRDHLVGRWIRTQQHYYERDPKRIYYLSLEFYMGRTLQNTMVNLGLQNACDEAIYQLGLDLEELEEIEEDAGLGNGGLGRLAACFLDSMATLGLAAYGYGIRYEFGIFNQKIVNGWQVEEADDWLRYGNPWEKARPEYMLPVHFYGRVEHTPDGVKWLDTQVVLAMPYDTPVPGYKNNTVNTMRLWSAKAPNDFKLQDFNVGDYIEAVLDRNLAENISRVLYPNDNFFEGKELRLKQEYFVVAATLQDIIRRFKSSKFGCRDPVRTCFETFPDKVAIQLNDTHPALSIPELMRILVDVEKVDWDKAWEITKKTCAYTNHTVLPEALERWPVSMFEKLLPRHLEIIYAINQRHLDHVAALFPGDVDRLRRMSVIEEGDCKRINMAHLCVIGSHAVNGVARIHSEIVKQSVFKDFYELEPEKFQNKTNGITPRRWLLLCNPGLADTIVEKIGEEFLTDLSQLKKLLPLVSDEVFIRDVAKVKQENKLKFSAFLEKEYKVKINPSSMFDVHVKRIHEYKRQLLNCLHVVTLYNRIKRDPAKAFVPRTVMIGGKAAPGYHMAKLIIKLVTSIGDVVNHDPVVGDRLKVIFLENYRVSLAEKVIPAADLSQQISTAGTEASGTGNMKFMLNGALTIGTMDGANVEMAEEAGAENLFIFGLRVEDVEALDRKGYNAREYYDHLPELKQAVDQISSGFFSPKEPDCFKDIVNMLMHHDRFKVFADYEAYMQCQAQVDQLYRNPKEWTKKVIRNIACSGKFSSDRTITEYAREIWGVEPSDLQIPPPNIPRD

[4] = target: 26S proteasome regulatory subunit 6B (Homo sapiens, UniProt P43686)
Sequence of 26S proteasome regulatory subunit 6B (P43686 whole entry): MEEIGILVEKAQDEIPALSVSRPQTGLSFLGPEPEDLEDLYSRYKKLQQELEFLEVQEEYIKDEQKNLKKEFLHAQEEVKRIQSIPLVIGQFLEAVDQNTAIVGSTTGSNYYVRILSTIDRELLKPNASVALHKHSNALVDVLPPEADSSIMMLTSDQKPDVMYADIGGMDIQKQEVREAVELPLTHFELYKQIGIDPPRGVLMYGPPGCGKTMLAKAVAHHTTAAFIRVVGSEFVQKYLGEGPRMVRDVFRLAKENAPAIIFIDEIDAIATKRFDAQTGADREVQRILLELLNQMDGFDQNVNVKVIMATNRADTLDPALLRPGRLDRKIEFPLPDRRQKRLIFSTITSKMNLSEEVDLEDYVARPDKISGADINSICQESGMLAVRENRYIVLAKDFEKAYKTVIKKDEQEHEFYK

ADP/ATP translocase 2 = target: T2, ADP/ATP translocase 2 (Homo sapiens, UniProt P05141)
T2 sequence (P05141 whole entry): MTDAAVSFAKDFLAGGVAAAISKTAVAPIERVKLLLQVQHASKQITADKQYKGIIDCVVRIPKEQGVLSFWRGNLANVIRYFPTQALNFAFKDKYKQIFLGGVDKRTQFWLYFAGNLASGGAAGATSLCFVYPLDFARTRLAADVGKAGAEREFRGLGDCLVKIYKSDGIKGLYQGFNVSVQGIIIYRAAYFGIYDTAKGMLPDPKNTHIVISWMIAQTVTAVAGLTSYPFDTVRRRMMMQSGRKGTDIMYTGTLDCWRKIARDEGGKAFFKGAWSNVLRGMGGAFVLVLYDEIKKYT

[5] = target: U5 small nuclear ribonucleoprotein 200 kDa helicase (Homo sapiens, UniProt O75643)
Activated CDC42 kinase 1 = Activated CDC42 kinase 1 (Homo sapiens, UniProt Q07912)
Sequence of Activated CDC42 kinase 1 (Q07912 whole entry): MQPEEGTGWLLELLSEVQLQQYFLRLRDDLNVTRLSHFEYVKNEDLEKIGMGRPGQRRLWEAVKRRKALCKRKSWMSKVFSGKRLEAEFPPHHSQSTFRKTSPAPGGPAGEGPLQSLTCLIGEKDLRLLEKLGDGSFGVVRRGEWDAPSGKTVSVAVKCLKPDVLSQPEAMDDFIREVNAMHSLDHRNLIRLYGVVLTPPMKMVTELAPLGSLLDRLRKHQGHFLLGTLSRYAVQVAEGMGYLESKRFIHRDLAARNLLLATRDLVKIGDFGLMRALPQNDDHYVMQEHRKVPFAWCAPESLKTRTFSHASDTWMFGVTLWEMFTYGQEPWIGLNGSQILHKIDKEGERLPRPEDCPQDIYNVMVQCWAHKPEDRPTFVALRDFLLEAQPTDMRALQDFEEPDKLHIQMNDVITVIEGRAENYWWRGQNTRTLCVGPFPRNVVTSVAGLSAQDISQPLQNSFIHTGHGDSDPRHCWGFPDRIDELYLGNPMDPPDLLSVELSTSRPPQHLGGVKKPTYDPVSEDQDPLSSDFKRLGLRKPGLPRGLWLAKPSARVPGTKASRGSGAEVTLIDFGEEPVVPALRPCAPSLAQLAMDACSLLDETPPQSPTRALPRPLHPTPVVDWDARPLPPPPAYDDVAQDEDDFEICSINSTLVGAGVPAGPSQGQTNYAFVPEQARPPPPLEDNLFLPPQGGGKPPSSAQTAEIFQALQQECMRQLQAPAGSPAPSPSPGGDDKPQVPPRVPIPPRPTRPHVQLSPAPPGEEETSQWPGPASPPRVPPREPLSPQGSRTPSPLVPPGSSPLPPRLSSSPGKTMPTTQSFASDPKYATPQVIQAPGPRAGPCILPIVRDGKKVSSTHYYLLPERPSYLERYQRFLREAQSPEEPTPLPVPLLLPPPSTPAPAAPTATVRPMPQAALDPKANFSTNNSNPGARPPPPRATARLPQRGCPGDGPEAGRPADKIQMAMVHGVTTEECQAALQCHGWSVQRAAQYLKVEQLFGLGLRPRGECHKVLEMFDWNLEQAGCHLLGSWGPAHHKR

[6] = target: T3, Bone morphogenetic protein receptor type-2 (Homo sapiens, UniProt Q13873)
T3 sequence (Q13873 whole entry): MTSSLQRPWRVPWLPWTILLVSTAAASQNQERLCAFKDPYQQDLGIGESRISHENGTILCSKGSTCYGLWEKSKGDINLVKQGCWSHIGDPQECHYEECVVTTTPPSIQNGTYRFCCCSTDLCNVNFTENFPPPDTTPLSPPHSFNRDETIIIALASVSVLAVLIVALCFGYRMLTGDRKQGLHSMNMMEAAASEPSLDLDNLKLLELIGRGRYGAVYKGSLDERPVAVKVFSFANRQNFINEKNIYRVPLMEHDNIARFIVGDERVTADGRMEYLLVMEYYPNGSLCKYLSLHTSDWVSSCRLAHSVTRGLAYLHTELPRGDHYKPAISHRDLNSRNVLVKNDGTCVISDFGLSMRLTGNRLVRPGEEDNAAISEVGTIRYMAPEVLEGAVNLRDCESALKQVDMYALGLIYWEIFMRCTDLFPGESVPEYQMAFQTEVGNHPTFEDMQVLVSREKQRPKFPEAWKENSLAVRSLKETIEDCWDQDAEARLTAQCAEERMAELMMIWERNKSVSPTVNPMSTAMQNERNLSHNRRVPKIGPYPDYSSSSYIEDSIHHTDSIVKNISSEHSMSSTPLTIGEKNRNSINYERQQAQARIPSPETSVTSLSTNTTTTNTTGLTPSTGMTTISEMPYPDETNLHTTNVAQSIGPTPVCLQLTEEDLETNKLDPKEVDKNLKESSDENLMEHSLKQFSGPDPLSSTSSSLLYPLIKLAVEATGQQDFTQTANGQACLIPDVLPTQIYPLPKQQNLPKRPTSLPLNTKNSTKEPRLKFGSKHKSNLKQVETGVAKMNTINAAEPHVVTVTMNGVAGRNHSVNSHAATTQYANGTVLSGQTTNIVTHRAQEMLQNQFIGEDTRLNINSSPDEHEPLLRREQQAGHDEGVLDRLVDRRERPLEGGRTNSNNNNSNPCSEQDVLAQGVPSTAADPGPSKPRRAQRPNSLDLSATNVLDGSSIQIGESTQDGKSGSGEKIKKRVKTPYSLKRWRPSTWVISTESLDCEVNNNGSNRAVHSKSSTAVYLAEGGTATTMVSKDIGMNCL
Further: in the data inactive means no Kd found up to 30 µM.

Sequence of Chromodomain-helicase-DNA-binding protein 4 (Q14839 whole entry): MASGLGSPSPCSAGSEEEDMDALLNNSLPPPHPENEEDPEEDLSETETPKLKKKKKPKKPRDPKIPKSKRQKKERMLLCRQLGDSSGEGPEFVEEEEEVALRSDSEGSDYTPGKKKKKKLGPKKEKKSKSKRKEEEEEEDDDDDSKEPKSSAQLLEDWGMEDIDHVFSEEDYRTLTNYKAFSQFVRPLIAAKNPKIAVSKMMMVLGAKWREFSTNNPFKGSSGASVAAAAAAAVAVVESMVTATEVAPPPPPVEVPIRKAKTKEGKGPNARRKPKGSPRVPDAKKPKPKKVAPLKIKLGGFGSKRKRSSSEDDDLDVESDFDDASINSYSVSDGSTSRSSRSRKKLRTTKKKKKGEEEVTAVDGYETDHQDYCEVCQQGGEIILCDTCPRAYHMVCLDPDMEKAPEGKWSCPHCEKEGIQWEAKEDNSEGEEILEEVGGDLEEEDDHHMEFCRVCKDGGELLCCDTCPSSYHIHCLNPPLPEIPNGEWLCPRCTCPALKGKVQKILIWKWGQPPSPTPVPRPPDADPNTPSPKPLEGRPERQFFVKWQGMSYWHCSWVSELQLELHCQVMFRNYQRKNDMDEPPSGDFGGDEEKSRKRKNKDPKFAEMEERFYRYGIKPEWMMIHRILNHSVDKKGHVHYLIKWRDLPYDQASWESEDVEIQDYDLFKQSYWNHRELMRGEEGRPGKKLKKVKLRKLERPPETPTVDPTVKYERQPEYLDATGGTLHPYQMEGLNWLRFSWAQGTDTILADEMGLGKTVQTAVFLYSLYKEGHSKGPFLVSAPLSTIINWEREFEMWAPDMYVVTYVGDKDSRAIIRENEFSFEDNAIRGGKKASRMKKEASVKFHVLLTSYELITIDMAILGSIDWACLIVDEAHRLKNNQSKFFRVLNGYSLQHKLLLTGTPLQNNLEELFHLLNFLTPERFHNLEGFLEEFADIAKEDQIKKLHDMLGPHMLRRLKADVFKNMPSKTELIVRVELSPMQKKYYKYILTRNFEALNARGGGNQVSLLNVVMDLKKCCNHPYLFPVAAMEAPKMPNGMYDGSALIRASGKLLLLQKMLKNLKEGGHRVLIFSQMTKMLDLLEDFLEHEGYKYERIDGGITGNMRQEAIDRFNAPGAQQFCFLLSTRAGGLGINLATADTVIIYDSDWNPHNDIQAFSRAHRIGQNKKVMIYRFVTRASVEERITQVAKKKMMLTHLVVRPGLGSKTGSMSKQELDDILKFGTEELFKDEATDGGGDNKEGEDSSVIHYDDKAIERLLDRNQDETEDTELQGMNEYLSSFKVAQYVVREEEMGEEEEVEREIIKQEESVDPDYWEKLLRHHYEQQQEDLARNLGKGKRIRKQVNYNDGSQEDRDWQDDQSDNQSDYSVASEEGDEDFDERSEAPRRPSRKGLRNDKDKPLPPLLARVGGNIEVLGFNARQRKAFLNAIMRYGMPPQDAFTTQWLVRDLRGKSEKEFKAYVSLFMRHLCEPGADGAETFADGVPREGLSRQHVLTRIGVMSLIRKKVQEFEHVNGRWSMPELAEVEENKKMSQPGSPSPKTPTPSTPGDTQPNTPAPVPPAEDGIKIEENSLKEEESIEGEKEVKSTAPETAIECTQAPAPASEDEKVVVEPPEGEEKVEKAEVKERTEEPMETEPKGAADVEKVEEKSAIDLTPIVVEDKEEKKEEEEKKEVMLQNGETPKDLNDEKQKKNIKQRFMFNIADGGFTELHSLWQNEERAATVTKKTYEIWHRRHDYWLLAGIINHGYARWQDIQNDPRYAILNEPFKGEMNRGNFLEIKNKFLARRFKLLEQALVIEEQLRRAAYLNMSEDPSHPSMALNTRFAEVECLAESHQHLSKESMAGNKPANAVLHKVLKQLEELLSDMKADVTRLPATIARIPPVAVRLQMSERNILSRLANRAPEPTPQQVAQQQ
Sequence of Mitogen-activated protein kinase 10 (P53779 whole entry): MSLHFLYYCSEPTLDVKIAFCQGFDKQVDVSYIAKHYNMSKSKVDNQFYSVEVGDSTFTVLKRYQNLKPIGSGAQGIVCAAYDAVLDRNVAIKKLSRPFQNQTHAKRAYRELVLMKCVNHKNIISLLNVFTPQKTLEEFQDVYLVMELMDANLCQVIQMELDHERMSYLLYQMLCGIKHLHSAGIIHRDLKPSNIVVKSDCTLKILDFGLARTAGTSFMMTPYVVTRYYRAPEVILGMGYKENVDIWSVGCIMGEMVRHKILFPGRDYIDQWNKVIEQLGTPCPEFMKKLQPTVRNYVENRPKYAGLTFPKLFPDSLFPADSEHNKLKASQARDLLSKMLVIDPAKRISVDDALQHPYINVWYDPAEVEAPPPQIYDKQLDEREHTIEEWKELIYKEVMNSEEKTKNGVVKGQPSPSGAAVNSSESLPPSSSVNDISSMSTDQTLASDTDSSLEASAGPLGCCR

| Kd [1] | Kd [2] | Kd [3] | Kd [4] | Kd (ADP/ATP translocase 2) | Kd [5] | Kd (Activated CDC42 kinase 1) | Kd [6] | SMILES |
| --- | --- | --- | --- | --- | --- | --- | --- | --- |
| > 30 µM (inactive) | > 30 µM (inactive) | > 30 µM (inactive) | > 30 µM (inactive) | > 30 µM (inactive) | > 30 µM (inactive) |  |  | Cc1cc(Nc2cc(N3CCN(C)CC3)nc(/C=C/c3ccccc3)n2)n[nH]1 [ENMD-2076] |
| > 30 µM (inactive) |  | > 30 µM (inactive) | > 30 µM (inactive) | > 30 µM (inactive) | > 30 µM (inactive) | > 30 µM (inactive) | > 30 µM (inactive) | COc1cc2nccc(Oc3ccc(NC(=O)NC4CC4)c(Cl)c3)c2cc1C(N)=O [LENVATINIB] |
| > 30 µM (inactive) | > 30 µM (inactive) | > 30 µM (inactive) | > 30 µM (inactive) | > 30 µM (inactive) |  | > 30 µM (inactive) | > 30 µM (inactive) | Cc1c(F)cc(C(=O)NC2CC2)cc1-c1ccc(C(=O)NCC(C)(C)C)cn1 [LOSMAPIMOD] |
| > 30 µM (inactive) |  | > 30 µM (inactive) | > 30 µM (inactive) | > 30 µM (inactive) | > 30 µM (inactive) |  |  | Nc1nc(N)c2nc(-c3cccc(O)c3)c(-c3cccc(O)c3)nc2n1 [TG100-115] |
| > 30 µM (inactive) |  | > 30 µM (inactive) | > 30 µM (inactive) | > 30 µM (inactive) | > 30 µM (inactive) |  |  | CCn1c(-c2nonc2N)nc2c(C#CC(C)(C)O)ncc(OC[C@H]3CCCNC3)c21 [GSK-690693] |
|  | > 30 µM (inactive) | > 30 µM (inactive) | > 30 µM (inactive) | > 30 µM (inactive) |  | > 30 µM (inactive) | > 30 µM (inactive) | C[C@@H](c1ccc2nccn2c1)n1nnc2ncc(-c3cnn(C)c3)nc21 [SAVOLITINIB] |
| > 30 µM (inactive) |  | > 30 µM (inactive) | > 30 µM (inactive) | > 30 µM (inactive) | > 30 µM (inactive) |  |  | CN1CCN(c2ccc3nc(-c4c(N)c5c(F)cccc5[nH]c4=O)[nH]c3c2)CC1 [DOVITINIB] |
| > 30 µM (inactive) | > 30 µM (inactive) | > 30 µM (inactive) | > 30 µM (inactive) | > 30 µM (inactive) |  | > 30 µM (inactive) | > 30 µM (inactive) | CC[C@H](Nc1ncnc2[nH]cnc12)c1nc2cccc(F)c2c(=O)n1-c1ccccc1 [IDELALISIB] |
| 0.003 µM | > 30 µM (inactive) | > 30 µM (inactive) | > 30 µM (inactive) | > 30 µM (inactive) | > 30 µM (inactive) |  | > 30 µM (inactive) | CCc1cnn2c(NCc3ccc[n+]([O-])c3)cc(N3CCCC[C@H]3CCO)nc12 [DINACICLIB] |
| > 30 µM (inactive) | 0.147 µM (active) | > 30 µM (inactive) | > 30 µM (inactive) | > 30 µM (inactive) | > 30 µM (inactive) |  |  | Cc1nc(N)sc1-c1ccnc(Nc2ccc(N3CCOCC3)cc2)n1 [CYC-116] |
| > 30 µM (inactive) | > 30 µM (inactive) | > 30 µM (inactive) | > 30 µM (inactive) | > 30 µM (inactive) | > 30 µM (inactive) |  | > 30 µM (inactive) | OCCn1cc(-c2cnc3nnn(Cc4ccc5ncccc5c4)c3n2)cn1 [PF-04217903] |

| SMILES | Kd [1] | Kd [2] | Kd [3] | Kd [4] | Kd (ADP/ATP translocase 2) | Kd [5] | Kd (Activated CDC42 kinase 1) | Kd [6] |
| --- | --- | --- | --- | --- | --- | --- | --- | --- |
| O=C(Nc1cccc(Cl)c1)Nc1ncc(CCNc2ncnc3ccsc23)s1 [SNS-314] | > 30 µM (inactive) |  | > 30 µM (inactive) | > 30 µM (inactive) | > 30 µM (inactive) | > 30 µM (inactive) |  | > 30 µM (inactive) |
| Cc1cn(-c2cc(NC(=O)c3ccc(C)c(Nc4nccc(-c5cccnc5)n4)c3)cc(C(F)(F)F)c2)cn1 [NILOTINIB] | > 30 µM (inactive) |  |  | > 30 µM (inactive) | > 30 µM (inactive) | > 30 µM (inactive) |  |  |
| COC(=O)[C@@]1(O)C[C@H]2O[C@]1(C)n1c3ccccc3c3c4c(c5c6ccccc6n2c5c31)C(=O)NC4 [K-252A] | > 30 µM (inactive) | > 30 µM (inactive) | > 30 µM (inactive) | > 30 µM (inactive) | > 30 µM (inactive) | > 30 µM (inactive) |  | > 30 µM (inactive) |
